Test results as given in ChEMBL document CHEMBL4052712, “Design and optimization of highly-selective, broad spectrum fungal CYP51 inhibitors” (Bioorg Med Chem Lett, 2017).
Active and inactive are the calls of the source. No cut-off for these calls is given here.

Experiments:
[1] = target: T1, Lanosterol 14-alpha demethylase (Aspergillus) (UniProt B8NUK6+Q9P8R0+G4WW85); assay: Inhibition of CYP51 in Aspergillus fumigatus assessed as inhibition of microbe growth incubated for 48 to 168 hrs by CLSI M27-A3 guideline based method
[2] = target: Lanosterol 14-alpha demethylase (Candida albicans (strain SC5314 / ATCC MYA-2876) (Yeast), UniProt P10613); assay: Inhibition of CYP51 in Candida albicans assessed as inhibition of microbe growth incubated for 48 hrs by CLSI M27-A3 guideline based method
Sequence of Lanosterol 14-alpha demethylase (P10613 whole entry): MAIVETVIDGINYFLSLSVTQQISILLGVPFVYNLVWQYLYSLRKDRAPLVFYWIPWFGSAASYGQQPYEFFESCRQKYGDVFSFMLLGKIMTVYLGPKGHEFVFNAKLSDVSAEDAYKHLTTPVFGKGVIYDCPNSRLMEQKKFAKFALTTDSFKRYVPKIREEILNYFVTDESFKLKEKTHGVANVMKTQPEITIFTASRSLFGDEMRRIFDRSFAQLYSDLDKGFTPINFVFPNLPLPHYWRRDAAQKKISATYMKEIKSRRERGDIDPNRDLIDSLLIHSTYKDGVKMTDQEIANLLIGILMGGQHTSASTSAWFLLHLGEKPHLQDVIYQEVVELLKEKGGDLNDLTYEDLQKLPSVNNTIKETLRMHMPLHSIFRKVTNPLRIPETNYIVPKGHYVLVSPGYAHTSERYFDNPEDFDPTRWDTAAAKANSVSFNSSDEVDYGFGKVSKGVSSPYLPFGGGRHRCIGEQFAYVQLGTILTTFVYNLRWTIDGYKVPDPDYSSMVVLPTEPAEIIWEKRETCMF

[3] = target: Cytochrome P450 3A4 (Homo sapiens, UniProt P08684); assay: Inhibition of CYP3A4 in human hepatocyte microsomes using testosterone substrate by HPLC/MS/MS method; assay type: ADME
Sequence of Cytochrome P450 3A4 (P08684 whole entry): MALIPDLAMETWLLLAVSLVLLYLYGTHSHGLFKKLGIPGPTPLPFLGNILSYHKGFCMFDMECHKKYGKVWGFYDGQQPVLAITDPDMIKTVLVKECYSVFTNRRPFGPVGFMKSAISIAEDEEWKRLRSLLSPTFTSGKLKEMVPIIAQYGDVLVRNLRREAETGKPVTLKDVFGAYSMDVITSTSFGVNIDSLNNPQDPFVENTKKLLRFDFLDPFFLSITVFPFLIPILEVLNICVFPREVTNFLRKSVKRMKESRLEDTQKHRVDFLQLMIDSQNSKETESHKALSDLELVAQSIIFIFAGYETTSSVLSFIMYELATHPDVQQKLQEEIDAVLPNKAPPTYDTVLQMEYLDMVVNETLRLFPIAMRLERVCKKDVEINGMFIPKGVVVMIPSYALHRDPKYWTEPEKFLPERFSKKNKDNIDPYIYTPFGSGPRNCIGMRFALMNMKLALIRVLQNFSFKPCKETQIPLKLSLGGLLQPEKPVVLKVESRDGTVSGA

[4] = target: T2, Lanosterol 14-alpha demethylase (Trichophyton rubrum (strain ATCC MYA-4607 / CBS 118892) (Athlete'sfoot fungus)) (UniProt F2SHH3); assay: Inhibition of CYP51 in Trichophyton rubrum assessed as inhibition of microbe growth incubated for 48 hrs by CLSI M27-A3 guideline based method
T2 sequence (whole entry): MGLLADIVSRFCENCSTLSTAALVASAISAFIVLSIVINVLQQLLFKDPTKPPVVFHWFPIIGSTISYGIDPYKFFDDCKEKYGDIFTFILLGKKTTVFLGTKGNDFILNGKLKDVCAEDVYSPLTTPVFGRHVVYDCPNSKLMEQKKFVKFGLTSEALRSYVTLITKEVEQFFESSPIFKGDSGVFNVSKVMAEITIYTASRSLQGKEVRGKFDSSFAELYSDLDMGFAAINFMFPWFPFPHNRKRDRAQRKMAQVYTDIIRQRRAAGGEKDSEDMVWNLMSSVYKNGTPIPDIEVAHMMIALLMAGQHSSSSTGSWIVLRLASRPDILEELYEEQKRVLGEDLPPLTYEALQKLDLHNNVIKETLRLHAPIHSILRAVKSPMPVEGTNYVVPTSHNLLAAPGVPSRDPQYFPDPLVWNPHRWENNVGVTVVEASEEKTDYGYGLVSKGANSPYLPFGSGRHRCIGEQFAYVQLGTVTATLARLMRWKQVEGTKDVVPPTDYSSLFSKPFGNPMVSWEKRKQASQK

[5] = target: T1, Lanosterol 14-alpha demethylase (Aspergillus); assay: Inhibition of CYP51 in Aspergillus flavus assessed as inhibition of microbe growth incubated for 48 to 168 hrs by CLSI M27-A3 guideline based method
[6] = target: Lanosterol 14-alpha demethylase (Candida glabrata (strain ATCC 2001 / BCRC 20586 / JCM 3761 / NBRC 0622 /NRRL Y-65 / CBS 138) (Yeast) (Nakaseomyces glabratus)) (UniProt P50859); assay: Inhibition of CYP51 in Candida glabrata assessed as inhibition of microbe growth incubated for 48 hrs by CLSI M27-A3 guideline based method
Sequence of Lanosterol 14-alpha demethylase (Candida glabrata (strain ATCC 2001 / BCRC 20586 / JCM 3761 / NBRC 0622 /NRRL Y-65 / CBS 138) (Yeast) (Nakaseomyces glabratus)) (P50859 whole entry): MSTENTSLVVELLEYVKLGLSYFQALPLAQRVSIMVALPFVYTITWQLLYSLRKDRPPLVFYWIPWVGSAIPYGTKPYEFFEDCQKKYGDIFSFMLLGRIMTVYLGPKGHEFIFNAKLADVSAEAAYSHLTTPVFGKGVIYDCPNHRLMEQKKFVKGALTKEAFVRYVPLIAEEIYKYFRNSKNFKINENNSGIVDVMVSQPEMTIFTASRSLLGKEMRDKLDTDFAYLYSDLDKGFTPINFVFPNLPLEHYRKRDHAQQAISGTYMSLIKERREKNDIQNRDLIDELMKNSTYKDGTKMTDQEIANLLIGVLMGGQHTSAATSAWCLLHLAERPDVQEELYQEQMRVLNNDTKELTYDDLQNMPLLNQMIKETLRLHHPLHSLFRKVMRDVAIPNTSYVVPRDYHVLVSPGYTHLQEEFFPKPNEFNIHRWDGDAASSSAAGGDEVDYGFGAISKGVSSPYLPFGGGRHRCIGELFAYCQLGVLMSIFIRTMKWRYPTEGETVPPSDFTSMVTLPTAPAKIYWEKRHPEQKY

[7] = tested on: Cryptococcus neoformans; assay: Inhibition of CYP51 in Cryptococcus neoformans assessed as inhibition of microbe growth incubated for 48 hrs by CLSI M27-A3 guideline based method

`OC(Cn1cnnn1)(c1ccc(F)cc1F)C(F)(F)c1ccc(C#Cc2ccc(OCc3ccc(OC(F)(F)F)cc3)cc2)cn1` (centres undefined) showed an MIC100 [1] greater than 64 mg/L, an MIC50 [2] of 0.25 mg/L and an IC50 [3] greater than 200 µM.

With `OC(Cn1cnnn1)(c1ccc(F)cc1F)C(F)(F)c1ccc(C#Cc2ccc(F)cc2)cn1` (single isomer, unassigned; (+)) [listing 1 of 2 here] the MIC50 [2] was less than 0.001 mg/L and the IC50 [3] was 198 µM.

`N#Cc1ccc(COc2ccc(C#Cc3ccc(C(F)(F)C(O)(Cn4cnnn4)c4ccc(F)cc4F)nc3)cc2)cc1F` (single isomer, unassigned; (+)) [listing 1 of 2 here] showed an MIC100 [1] of 0.5 mg/L.

For `OC(Cn1cnnn1)(c1ccc(F)cc1F)C(F)(F)c1ccc(C#Cc2ccc(OCC(F)F)cc2)cn1` (centres undefined), the MIC100 [1] was 64 mg/L, the MIC50 [2] was less than 0.001 mg/L and the IC50 [3] was 60 µM.

For `OC(Cn1cnnn1)(c1ccc(F)cc1F)C(F)(F)c1ccc(C#Cc2ccc(Cl)cc2)cn1` (centres undefined), the MIC100 [1] was greater than 64 mg/L, the MIC50 [2] was 0.004 mg/L and the IC50 [3] was greater than 200 µM.

Work on `OC(Cn1cnnn1)(c1ccc(F)cc1F)C(F)(F)c1ccc(C#Cc2ccc(OCc3ccc(CC(F)F)cc3)cc2)cn1` (single isomer, unassigned; (+)) [listing 1 of 2 here] yielded an MIC50 [2] of 0.031 mg/L and an IC50 [3] greater than 200 µM.

`OC(Cn1cnnn1)(c1ccc(F)cc1F)C(F)(F)c1ccc(C#Cc2ccc(F)cc2)cn1` (single isomer, unassigned; (+)) [listing 2 of 2 here] gave an MIC100 [1] of 16 mg/L.

`N#Cc1ccc(COc2ccc(C#Cc3ccc(C(F)(F)C(O)(Cn4cnnn4)c4ccc(F)cc4F)nc3)cc2)cc1` (stereo in doubt; 7f) [listing 1 of 2 here] gave an MIC50 [2] of 0.031 mg/L and an IC50 [3] greater than 200 µM.

`OC(Cn1cnnn1)(c1ccc(F)cc1F)C(F)(F)c1ccc(C#Cc2ccc(OCc3ccc(C(F)(F)F)cc3)cc2)cn1` (centres undefined) showed an MIC100 [1] greater than 64 mg/L, an MIC50 [2] of 0.125 mg/L and an IC50 [3] greater than 200 µM.

For `OC(Cn1cnnn1)(c1ccc(F)cc1F)C(F)(F)c1ccc(C#Cc2ccc(F)cc2)cn1` (single isomer, unassigned; (-)), the MIC100 [1] was “inactive”.

`N#Cc1ccc(COc2ccc(C#Cc3ccc(C(F)(F)C(O)(Cn4cnnn4)c4ccc(F)cc4F)nc3)cc2)cc1F` (stereo in doubt; 8a) [listing 1 of 2 here] was tested, and the MIC50 [2] was 0.031 mg/L and the IC50 [3] was greater than 200 µM.

Work on `N#Cc1ccc(COc2ccc(C#Cc3ccc(C(F)(F)C(O)(Cn4cnnn4)c4ccc(F)cc4F)nc3)cc2)cc1` (stereo in doubt; 7f) [listing 2 of 2 here] yielded an MIC100 [1] of 8 mg/L.

`N#Cc1ccc(COc2ccc(C#Cc3ccc(C(F)(F)C(O)(Cn4cnnn4)c4ccc(F)cc4F)nc3)cc2)cc1` (single isomer, unassigned; (+)) was tested, and the MIC100 [1] was 0.25 mg/L, the MIC50 [4] was 0.25 mg/L and the MIC100 [5] was 0.5 mg/L. It also gave an MIC50 [6] of 0.12 mg/L and an MIC50 [7] of 0.0019 mg/L.

`CNC(=O)c1ccc(COc2ccc(C#Cc3ccc(C(F)(F)C(O)(Cn4cnnn4)c4ccc(F)cc4F)nc3)cc2)cc1` (centres undefined) gave an MIC100 [1] greater than 64 mg/L, an MIC50 [2] of 0.031 mg/L and an IC50 [3] of 122 µM.

`OC(Cn1cnnn1)(c1ccc(F)cc1F)C(F)(F)c1ccc(C#Cc2ccc(OCc3ccc(CC(F)F)cc3)cc2)cn1` (single isomer, unassigned; (+)) [listing 2 of 2 here] gave an MIC100 [1] of 2 mg/L.

In the case of `N#Cc1ccc(COc2ccc(C#Cc3ccc(C(F)(F)C(O)(Cn4cnnn4)c4ccc(F)cc4F)nc3)cc2)cc1F` (single isomer, unassigned; (+)) [listing 2 of 2 here], the MIC50 [2] is reported as 0.004 mg/L and the IC50 [3] is reported as greater than 200 µM.

Work on `OC(Cn1cnnn1)(c1ccc(F)cc1F)C(F)(F)c1ccc(C#Cc2ccc(F)cc2)cn1` (stereo in doubt; 6a) [listing 1 of 2 here] yielded an IC50 [3] of 100 µM.

`N#Cc1ccc(COc2ccc(C#Cc3ccc(C(F)(F)C(O)(Cn4cnnn4)c4ccc(F)cc4F)nc3)cc2)c(F)c1` (centres undefined) was tested, and the MIC100 [1] was greater than 64 mg/L, the MIC50 [2] was 0.16 mg/L and the IC50 [3] was greater than 200 µM.

In the case of `N#Cc1ccc(COc2ccc(C#Cc3ccc(C(F)(F)C(O)(Cn4cnnn4)c4ccc(F)cc4F)nc3)cc2)cc1F` (stereo in doubt; 8a) [listing 2 of 2 here], the MIC100 [1] is reported as 1 mg/L.

Work on `OC(Cn1cnnn1)(c1ccc(F)cc1F)C(F)(F)c1ccc(C#Cc2ccc(OCc3ccc(F)cc3)cc2)cn1` (centres undefined) yielded an MIC100 [1] of 32 mg/L, an MIC50 [2] of 0.0625 mg/L and an IC50 [3] greater than 200 µM.

`OC(Cn1cnnn1)(c1ccc(F)cc1F)C(F)(F)c1ccc(C#Cc2cccc(F)c2)cn1` (centres undefined) was tested, and the MIC100 [1] was greater than 64 mg/L, the MIC50 [2] was 0.004 mg/L and the IC50 [3] was greater than 200 µM.

Compound `N#Cc1cccc(COc2ccc(C#Cc3ccc(C(F)(F)C(O)(Cn4cnnn4)c4ccc(F)cc4F)nc3)cc2)c1` (centres undefined) has an MIC100 [1] greater than 64 mg/L, an MIC50 [2] of 0.016 mg/L and an IC50 [3] greater than 200 µM.

For `N#Cc1ccc(COc2ccc(C#Cc3ccc(C(F)(F)C(O)(Cn4cnnn4)c4ccc(Cl)cc4F)nc3)cc2)cc1` (centres undefined), the MIC100 [1] was greater than 64 mg/L, the MIC50 [2] was 0.031 mg/L and the IC50 [3] was greater than 200 µM.

Compound `OC(Cn1cnnn1)(c1ccc(F)cc1F)C(F)(F)c1ccc(C#Cc2cccc(Cl)c2)cn1` (centres undefined) has an MIC100 [1] greater than 64 mg/L, an MIC50 [2] of 0.031 mg/L and an IC50 [3] greater than 200 µM.

With `N#Cc1ccc(OCc2ccc(C#Cc3ccc(C(F)(F)C(O)(Cn4cnnn4)c4ccc(F)cc4F)nc3)cc2)cc1` (centres undefined) the MIC100 [1] was greater than 64 mg/L, the MIC50 [2] was 0.031 mg/L and the IC50 [3] was greater than 200 µM.

With `OC(Cn1cnnn1)(c1ccc(F)cc1F)C(F)(F)c1ccc(C#Cc2ccc(OCc3ccc(CC(F)F)cc3)cc2)cn1` (stereo in doubt; 7e) [listing 1 of 2 here] the MIC50 [2] was 0.0625 mg/L and the IC50 [3] was greater than 200 µM.

`OC(Cn1cnnn1)(c1ccc(F)cc1F)C(F)(F)c1ccc(C#Cc2ccc(OCc3ccc(CC(F)F)cc3)cc2)cn1` (stereo in doubt; 7e) [listing 2 of 2 here] gave an MIC100 [1] of 4 mg/L.

With `O[C@@](Cn1cnnn1)(c1ccc(F)cc1F)C(F)(F)c1ccc(-c2ccc(OCC(F)(F)F)cc2)cn1` [OTESECONAZOLE] the MIC100 [1] was greater than 64 mg/L, the MIC50 [2] was less than 0.001 mg/L and the IC50 [3] was 65 µM.

Compound `OC(Cn1cnnn1)(c1ccc(F)cc1F)C(F)(F)c1ccc(C#Cc2ccc(C(F)(F)F)cc2)cn1` (centres undefined) has an MIC100 [1] greater than 64 mg/L, an MIC50 [2] of 0.016 mg/L and an IC50 [3] greater than 200 µM.

`OC(Cn1cnnn1)(c1ccc(F)cc1F)C(F)(F)c1ccc(C#Cc2ccc(F)cc2)cn1` (stereo in doubt; 6a) [listing 2 of 2 here] showed an MIC100 [1] greater than 64 mg/L.

`N#Cc1ccc(COc2ccc(C#Cc3ccc(C(F)(F)C(O)(Cn4cnnn4)c4cc(F)ccc4F)nc3)cc2)cc1` (centres undefined) showed an MIC100 [1] greater than 64 mg/L, an MIC50 [2] of 0.016 mg/L and an IC50 [3] greater than 200 µM.

`OC(Cn1cnnn1)(c1ccc(F)cc1F)C(F)(F)c1ccc(C#Cc2ccc(NCC(F)(F)F)cc2)cn1` (centres undefined) showed an MIC100 [1] of 4 mg/L, an MIC50 [2] of less than 0.001 mg/L and an IC50 [3] of 10 µM.
